Data set [1] is described as follows: Compound cytotoxicity, XTT-based colorimetric assay. The settings on record: human, uninfected MT2 cells. The data set is classed as cell-based. Put shortly:
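CC50 from uninfected MT2 cells run under the antiviral-assay protocol without virus. Viability read on day 4 by XTT colorimetric assay.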
In general terms: Tetrazolium assays rely on reduction of a dye to a coloured formazan, in cell work by metabolically active cells.

In data set [2] the test system is recombinant NL4-3 virus (nef section replaced with Renilla luciferase gene) in MT-2 cells. The data set is described as follows: HIV cell culture assay (antiviral activity, luciferase readout). The data set is classed as cell-based. The settings on record: MT-2 cells infected for 4-5 days with recombinant NL4-3 luciferase virus. Put shortly: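 NL4-3 reporter virus carrying Renilla luciferase in place of part of nef, produced in 293T cells, was used to infect MT-2 cells for 4-5 days with serial compound dilutions. Luciferase activity was read with a live-cell substrate; EC50 derived from the median effect equation.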

Consider 18 molecules from patent US10954252B1, “Inhibitors of human immunodeficiency virus replication” (ViiV HEALTHCARE UK (NO.5) LIMITED, priority 2017, dated 2021).

One may read the CC50 as the concentration giving 50% cytotoxicity. Read a high CC50 as lower toxicity to the cells. What is called EC50 is the concentration that produces a half-maximal response.

Molecules are shown by their SMILES.

The molecule `N#Cc1cccc(-c2cc3[nH]ncc3nc2[C@H](Cc2cc(F)cc(F)c2)NC(=O)Cn2nc(C(F)F)c3c2C(F)(F)[C@@H]2C[C@H]32)c1` [Example 10.2, N—((S)-1-(6-(3-cyanophenyl)-1H-pyrazolo[4,3-b]pyridin-5-yl)-2-(3,5-difluorophenyl)ethyl)-2-((3bS,4aR)-3-(difluoromethyl)-5,5-difluoro-3b,4,4a,5-tetrahydro-1H-cyclopropa[3,4]cyclopenta[1,2-c]pyrazol-1-yl)acetamide] showed a 50% cytotoxic concentration (CC50) at 4 days in data set [1] (Table 1, day 4, XTT) of 9700 nM. Further, the concentration for a half-maximal effect (EC50) in data set [2] (Renilla, NL43, Table 1) was found to be 460 nM.
For the molecule `O=C(Cn1nc(C(F)F)c2c1C(F)(F)[C@@H]1C[C@H]21)NC(Cc1cc(F)cc(F)c1)c1nc2cn[nH]c2cc1-c1ccc(C2CC2)cc1` (single isomer, unassigned) [Example 3.11], the midpoint of cytotoxicity in data set [1] (Table 1, day 4, XTT), the CC50 at 4 days, lay at 4200 nM. The EC50 in data set [2] (Renilla, NL43, Table 1) turned out to be 670 nM.
Take `CC(C)(c1ccc2c(=O)n(-c3ccc(Cl)c4c(NS(C)(=O)=O)nn(CC(F)F)c34)c([C@H](Cc3cc(F)cc(F)c3)NC(=O)Cn3nc(C(F)F)c4c3C(F)(F)[C@@H]3C[C@H]43)nc2c1)S(C)(=O)=O` [Example 213, N—((S)-1-(3-(4-chloro-1-(2,2-difluoroethyl)-3-(methylsulfonamido)-1H-indazol-7-yl)-7-(2-(methylsulfonyl)propan-2-yl)-4-oxo-3,4-dihydroquinazolin-2-yl)-2-(3,5-difluorophenyl)ethyl)-2-((3bS,4aR)-3-(difluoromethyl)-5,5-difluoro-3b,4,4a,5-tetrahydro-1H-cyclopropa[3,4]cyclopenta[1,2-c]pyrazol-1-yl)acetamide]: the CC50 at 4 days in data set [1] (Table 1a, day 4, XTT) is over 1000 nM. In data set [2] (Renilla, NL43, Table 1a), the half-maximal effective concentration (EC50) worked out at 0.28 nM.
The corresponding values for `COc1ccc(-n2c([C@H](Cc3cc(F)cc(F)c3)NC(=O)Cn3nc(C(F)F)c4c3C(F)(F)[C@@H]3C[C@H]43)nc3ncccc3c2=O)cn1` [Example 29, 2-[(2S,4R)-9-(difluoromethyl)-5,5-difluoro-7,8-diazatricyclo[4.3.0.0^2,4]nona-1(6),8-dien-7-yl]-N-[(1S)-2-(3,5-difluorophenyl)-1-[3-(6-methoxypyridin-3-yl)-4-oxo-3H,4H-pyrido[2,3-d]pyrimidin-2-yl]ethyl]acetamide] are over 10000 nM and 26 nM.
Regarding `Cc1cccc2nc([C@H](Cc3cc(F)cc(F)c3)NC(=O)Cn3ccc(C4CC4)n3)n(-c3ccc(Cl)c4c(NS(C)(=O)=O)nn(C)c34)c(=O)c12` (single isomer, unassigned) [Example 133], in data set [1] (Table 1a, day 4, XTT), the half-maximal cytotoxic concentration (CC50) at 4 days was over 1000 nM. Further, in data set [2] (Table 1a), the 50% effective concentration (EC50) came out at 127 nM.
On to `O=C(Cn1nc(C(F)F)c2c1C(F)(F)[C@@H]1C[C@H]21)NC(Cc1cc(F)cc(F)c1)c1ncc2nc[nH]c2c1-c1ccc2scnc2c1` (single isomer, unassigned) [Example 7.1], for which the CC50 at 4 days in data set [1] (Table 1, day 4, XTT) is 16200 nM. The EC50 in data set [2] (Table 1) amounted to 140 nM.
The molecule `N#Cc1ccc(-c2cc3[nH]ncc3nc2[C@H](Cc2cc(F)cc(F)c2)NC(=O)Cn2nc(C(F)F)c3c2C(F)(F)[C@@H]2C[C@H]32)cc1` [Example 10.5, N—((S)-1-(6-(4-cyanophenyl)-1H-pyrazolo[4,3-b]pyridin-5-yl)-2-(3,5-difluorophenyl)ethyl)-2-((3bS,4aR)-3-(difluoromethyl)-5,5-difluoro-3b,4,4a,5-tetrahydro-1H-cyclopropa[3,4]cyclopenta[1,2-c]pyrazol-1-yl)acetamide] gave a half-maximal cytotoxic concentration (CC50) at 4 days in data set [1] (Table 1, day 4, XTT) of 9350 nM. Besides, the EC50 in data set [2] (Renilla, NL43, Table 1) was determined as 300 nM.
As for `COc1ccc2c(=O)n(-c3ccc(Cl)c4c(NS(C)(=O)=O)nn(C)c34)c([C@H](Cc3cc(F)cc(F)c3)NC(=O)Cn3ccc(C4CC4)n3)nc2c1` (single isomer, unassigned) [Example 78], the CC50 at 4 days in data set [1] (Table 1a, day 4, XTT) was over 1000 nM. The EC50 in data set [2] (Renilla, NL43, Table 1a) amounted to 0.478 nM.
As for `Cn1nc(NS(C)(=O)=O)c2c(Cl)ccc(-n3c([C@H](Cc4cc(F)cc(F)c4)NC(=O)Cn4nc(C(F)F)c5c4C(F)(F)[C@@H]4C[C@H]54)nc4cc(CS(C)(=O)=O)ccc4c3=O)c21` (mixture of isomers) [Example 201, N—((S)-1-(3-(4-chloro-1-methyl-3-(methylsulfonamido)-1H-indazol-7-yl)-7-((methylsulfonyl)methyl)-4-oxo-3,4-dihydroquinazolin-2-yl)-2-(3,5-difluorophenyl)ethyl)-2-((3bS,4aR)-3-(difluoromethyl)-5,5-difluoro-3b,4,4a,5-tetrahydro-1H-cyclopropa[3,4]cyclopenta[1,2-c]pyrazol-1-yl)acetamide], the CC50 at 4 days in data set [1] (Table 1a, day 4, XTT) is over 1000 nM. Besides, the EC50 in data set [2] (Table 1a) worked out at 71.8 nM.
As for `O=C(Cn1nc(C(F)F)c2c1C(F)(F)[C@@H]1C[C@H]21)N[C@@H](Cc1cc(F)cc(F)c1)c1nc2cn[nH]c2cc1-c1ccc2c(c1)CNC2=O` [Example 10.12, 2-((3bS,4aR)-3-(difluoromethyl)-5,5-difluoro-3b,4,4a,5-tetrahydro-1H-cyclopropa[3,4]cyclopenta[1,2-c]pyrazol-1-yl)-N—((S)-2-(3,5-difluorophenyl)-1-(6-(1-oxoisoindolin-5-yl)-1H-pyrazolo[4,3-b]pyridin-5-yl)ethyl)acetamide], the 50% cytotoxic concentration (CC50) at 4 days in data set [1] (Table 1, day 4, XTT) was over 10000 nM. Besides, the half-maximal effective concentration (EC50) in data set [2] (Renilla, NL43, Table 1) was found to be 95 nM.
`Cn1nc(NS(C)(=O)=O)c2c(Cl)ccc(-c3cc4ccccc4nc3[C@H](Cc3cc(F)cc(F)c3)NC(=O)Cc3c[nH]c4ccc(O)cc34)c21` [Example 10.17] had a CC50 at 4 days in data set [1] (Table 1, day 4, XTT) of over 10000 nM. Moreover, the concentration for a half-maximal effect (EC50) in data set [2] (Renilla, NL43, Table 1) is 2.4 nM.
On to `Cc1nc2nc(C(Cc3cc(F)cc(F)c3)NC(=O)Cn3nc(C(F)F)c4c3C(F)(F)[C@@H]3C[C@H]43)c(-c3ccc(Cl)c4c(NS(C)(=O)=O)nn(C)c34)cc2s1` (single isomer, unassigned) [Example 2.1], for which the CC50 at 4 days in data set [1] (Table 1, day 4, XTT) is over 10000 nM. In addition, the EC50 in data set [2] (Table 1) is 0.1 nM.
In turn, `COc1ccc2c(=O)n(-c3ccc(Cl)c4c(NS(=O)(=O)C5CC5)nn(CC(F)F)c34)c([C@H](Cc3cc(F)cc(F)c3)NC(=O)Cn3nc(C(F)F)c4c3C(F)(F)[C@@H]3C[C@H]43)nc2n1` (mixture of isomers) [Example 56.2, N-[(1S)-1-{3-[4-chloro-3-cyclopropanesulfonamido-1-(2,2-difluoroethyl)-1H-indazol-7-yl]-7-methoxy-4-oxo-3H,4H-pyrido[2,3-d]pyrimidin-2-yl}-2-(3,5-difluorophenyl)ethyl]-2-[(2S,4R)-9-(difluoromethyl)-5,85-difluoro-7,8-diazatricyclo[4.3.0.0^2,4]nona-1(6),8-dien-7-yl]acetamide] displayed a CC50 at 4 days in data set [1] (Table 1a, day 4, XTT) of over 1000 nM. For the same molecule, the EC50 in data set [2] (Renilla, NL43, Table 1a) came to 0.022 nM.
The corresponding values for `Cn1nc(NS(C)(=O)=O)c2c(Cl)ccc(-n3c([C@H](Cc4cc(F)cc(F)c4)NC(=O)Cn4nc(C(F)F)c5c4C(F)(F)[C@@H]4C[C@H]54)nc4ccc(Cl)c(F)c4c3=O)c21` (mixture of isomers) [Example 175, N—((S)-1-(6-chloro-3-(4-chloro-1-methyl-3-(methylsulfonamido)-1H-indazol-7-yl)-5-fluoro-4-oxo-3,4-dihydroquinazolin-2-yl)-2-(3,5-difluorophenyl)ethyl)-2-((3bS,4aR)-3-(difluoromethyl)-5,5-difluoro-3b,4,4a,5-tetrahydro-1H-cyclopropa[3,4]cyclopenta[1,2-c]pyrazol-1-yl)acetamide] are over 1000 nM and 10.9 nM.
On to `Cn1nc(NS(C)(=O)=O)c2c(Cl)ccc(-n3c([C@H](Cc4cc(F)cc(F)c4)NC(=O)Cn4nc(C(F)F)c5c4C(F)(F)[C@@H]4C[C@H]54)nc4ccc(F)c(Cl)c4c3=O)c21` (mixture of isomers) [Example 159, N—((S)-1-(5-chloro-3-(4-chloro-1-methyl-3-(methylsulfonamido)-1H-indazol-7-yl)-6-fluoro-4-oxo-3,4-dihydroquinazolin-2-yl)-2-(3,5-difluorophenyl)ethyl)-2-((3bS,4aR)-3-(difluoromethyl)-5,5-difluoro-3b,4,4a,5-tetrahydro-1H-cyclopropa[3,4]cyclopenta[1,2-c]pyrazol-1-yl)acetamide], for which the half-maximal cytotoxic concentration (CC50) at 4 days in data set [1] (Table 1a, day 4, XTT) was over 1000 nM. Besides, the EC50 in data set [2] (Renilla, NL43, Table 1a) stood at 9.49 nM.
`Cc1cccc2nc([C@H](Cc3cc(F)cc(F)c3)NC(=O)Cn3nc(C(F)F)c4c3C(F)(F)[C@@H]3C[C@H]43)n(-c3ccc(Cl)c4c(NS(C)(=O)=O)nn(C)c34)c(=O)c12` (single isomer, unassigned) [Example 125] came in with a CC50 at 4 days in data set [1] (Table 1a, day 4, XTT) of over 1000 nM. Also, the EC50 in data set [2] (Table 1a) was found to be 63.9 nM.
Turning to `O=C(Cn1nc(C(F)F)c2c1C(F)(F)[C@@H]1C[C@H]21)N[C@@H](Cc1cc(F)cc(F)c1)c1nc2cn[nH]c2cc1-c1cccc2c1CNC2=O` [Example 10.13, 2-((3bS,4aR)-3-(difluoromethyl)-5,5-difluoro-3b,4,4a,5-tetrahydro-1H-cyclopropa[3,4]cyclopenta[1,2-c]pyrazol-1-yl)-N—((S)-2-(3,5-difluorophenyl)-1-(6-(1-oxoisoindolin-4-yl)-1H-pyrazolo[4,3-b]pyridin-5-yl)ethyl)acetamide], the CC50 at 4 days in data set [1] (Table 1, day 4, XTT) was over 10000 nM. Further, in data set [2] (Renilla, NL43, Table 1), the EC50 is 12 nM.
In data set [1] (Table 1a, day 4, XTT), `COc1ccc2c(=O)n(-c3ccc(Cl)c4c(NS(C)(=O)=O)nn(CC(F)F)c34)c(C(Cc3cc(F)cc(F)c3)NC(=O)Cn3nc(C(F)F)c4c3C(F)(F)[C@@H]3C[C@H]43)nc2n1` (single isomer, unassigned) [Example 54.1] displayed a CC50 at 4 days of over 1000 nM. In data set [2] (Renilla, NL43, Table 1a), the EC50 amounted to 43.4 nM.
